Results published in US8592456B2 (4SC Discovery GmbH, priority 2011, dated 2013).

test system: PBMC (T cell proliferation); assay: T cell proliferation assay, PHA-stimulated human PBMC (BrdU ELISA); assay type: cell-based; conditions: PHA-stimulated human PBMC, 48 hours, BrdU; column D; activity classes 1-4; read-out: IC50 (Tcell proliferation)
Outline: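 Healthy-donor human PBMC, Ficoll-isolated, seeded 1×10^5 cells/well in RPMI1640 with 10% dialyzed FCS, stimulated with 2 μg/ml PHA alongside test compound. Proliferation read after 48 hours by BrdU ELISA.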

SMILES | IC50 [µM]
Cc1nnc(-c2c(-c3c(F)cccc3Cl)noc2-c2cnn(-c3ccccc3Cl)c2C(F)(F)F)o1 [IB-18, 2-(3-(2-chloro-6-fluorophenyl)-5-(1-(2-chlorophenyl)-5-(trifluoromethyl)-1H-pyrazol-4-yl)isoxazol-4-yl)-5-methyl-1,3,4-oxadiazole] | 1 to 10
Fc1cccc(Cl)c1-c1noc(-c2cnn(-c3cccc(Cl)c3)c2C(F)(F)F)c1-c1ccoc1 [IB-7, 3-(2-chloro-6-fluorophenyl)-5-(1-(3-chlorophenyl)-5-(trifluoromethyl)-1H-pyrazol-4-yl)-4-(furan-3-yl)isoxazole] | < 0.01
Fc1cccc(Cl)c1-c1noc(-c2cnn(-c3cccc(Cl)c3)c2C(F)(F)F)c1-c1nncs1 [IB-8, 3-(2-chloro-6-fluorophenyl)-5-(1-(3-chlorophenyl)-5-(trifluoromethyl)-1H-pyrazol-4-yl)-4-(1,3,4-thiadiazol-2-yl)isoxazole] | < 0.01
COc1csc(-c2c(-c3c(F)cccc3Cl)noc2-c2cnn(-c3cccc(F)c3)c2C(F)(F)F)n1 [Example I-10, 3-(2-chloro-6-fluorophenyl)-5-(1-(3-fluorophenyl)-5-(trifluoromethyl)-1H-pyrazol-4-yl)-4-(4-methoxythiazol-2-yl)isoxazole] | 0.01 to 0.1
Fc1cccc(Cl)c1-c1noc(-c2cnn(-c3cccc(Cl)c3)c2C(F)(F)F)c1-c1nnco1 [IB-5, 2-(3-(2-chloro-6-fluorophenyl)-5-(1-(3-chlorophenyl)-5-(trifluoromethyl)-1H-pyrazol-4-yl)isoxazol-4-yl)-1,3,4-oxadiazole] | < 0.01
COc1cccc(Cl)c1-c1noc(-c2cnn(-c3ccccc3Cl)c2C(F)(F)F)c1-c1cnco1 [IB-34, 3-(2-chloro-6-methoxyphenyl)-5-(1-(2-chlorophenyl)-5-(trifluoromethyl)-1H-pyrazol-4-yl)-4-(oxazol-5-yl)isoxazole] | 0.1 to 1

same assay, conditions: human PBMC, 2 μg/ml PHA, 48 hours, BrdU; read-out: D: IC50 (Tcell proliferation)

SMILES | IC50 [µM]
NC(=O)c1c(-c2c(F)cccc2Cl)noc1-c1cnn(-c2cccc(F)c2)c1C(F)(F)F [Example 124, 3-(2-chloro-6-fluorophenyl)-5-(1-(3-fluorophenyl)-5-(trifluoromethyl)-1H-pyrazol-4-yl)isoxazole-4-carboxamide] | 1 to 10
CCOC(=O)c1c(-c2c(Cl)cncc2Cl)noc1-c1cnn(-c2ccccn2)c1C(F)(F)F [Example B-5, ethyl 3-(3,5-dichloropyridin-4-yl)-5-(1-(pyridin-2-yl)-5-(trifluoromethyl)-1H-pyrazol-4-yl)isoxazole-4-carboxylate] | 1 to 10
CO/C(=N\c1c(-c2c(F)cccc2Cl)noc1-c1cnn(-c2cccc(F)c2)c1C(F)(F)F)C(F)(F)F [Example 136, (Z)-methyl N-(3-(2-chloro-6-fluorophenyl)-5-(1-(3-fluorophenyl)-5-(trifluoromethyl)-1H-pyrazol-4-yl)isoxazol-4-yl)-2,2,2-trifluoroacetimidate] | 0.1 to 1
CCOC(=O)c1c(-c2c(F)cccc2Cl)noc1-c1cnn(-c2ccccc2C#N)c1C(F)(F)F [Example B-44, ethyl 3-(2-chloro-6-fluorophenyl)-5-(1-(2-cyanophenyl)-5-(trifluoromethyl)-1H-pyrazol-4-yl)-isoxazole-4-carboxylate] | 1 to 10
O=C(c1c(-c2ccccc2Cl)noc1-c1cnn(-c2cccc(Cl)c2)c1C(F)(F)F)N1CCCO1 [Example B-62, (3-(2-chlorophenyl)-5-(1-(3-chlorophenyl)-5-(trifluoromethyl)-1H-pyrazol-4-yl)isoxazol-4-yl)(isoxazolidin-2-yl)methanone] | 0.01 to 0.1
CON(C)C(=O)c1c(-c2c(F)cccc2Cl)noc1-c1cnn(-c2ccccc2F)c1C(F)(F)F [Example B-53, 3-(2-chloro-6-fluorophenyl)-5-(1-(2-fluorophenyl)-5-(trifluoromethyl)-1H-pyrazol-4-yl)-N-methoxy-N-methylisoxazole-4-carboxamide] | 0.1 to 1
CCOC(=O)c1c(-c2c(F)cccc2Cl)noc1-c1cnn(-c2ccncc2)c1C(F)(F)F [Example B-38, ethyl 3-(2-chloro-6-fluorophenyl)-5-(1-(pyridin-4-yl)-5-(trifluoromethyl)-1H-pyrazol-4-yl)-isoxazole-4-carboxylate] | < 0.01
CC(C)=NNC(=O)c1c(-c2c(F)cccc2Cl)noc1-c1cnn(-c2cccc(F)c2)c1 [Example B-29, 3-(2-chloro-6-fluorophenyl)-5-(1-(3-fluorophenyl)-1H-pyrazol-4-yl)-N′-(propan-2-ylidene)isoxazole-4-carbohydrazide] | 1 to 10
NC(=S)c1c(-c2c(F)cccc2Cl)noc1-c1cnn(-c2ccccc2Cl)c1C(F)(F)F [Example B-101, 3-(2-chloro-6-fluorophenyl)-5-(1-(2-chlorophenyl)-5-(trifluoromethyl)-1H-pyrazol-4-yl)isoxazole-4-carbothioamide] | 1 to 10
CCOC(=O)c1c(-c2onc(-c3c(F)cccc3Cl)c2C(=O)OC)cnn1-c1ccccc1 [Example 34, methyl 3-(2-chloro-6-fluorophenyl)-5-(5-(ethoxycarbonyl)-1-phenyl-1Hpyrazol-4-yl)isoxazole-4-carboxylate] | 1 to 10
CCOC(=O)c1c(-c2onc(-c3c(F)cccc3Cl)c2C(=O)OC)cnn1CC(C)C [Example 29] | 1 to 10
O=C(NC1CCCCC1)c1c(-c2c(F)cccc2Cl)noc1-c1cnn(-c2ccccc2F)c1C(F)(F)F [Example 18, 3-(2-chloro-6-fluorophenyl)-N-cyclohexyl-5-(1-(2-fluorophenyl)-5-(trifluoromethyl)-1H-pyrazol-4-yl)isoxazole-4-carboxamide] | 1 to 10
COC(=O)c1c(-c2ccccc2)noc1-c1cnn(-c2ccc(OC(F)(F)F)cc2)c1C(F)(F)F [Example 74, methyl 3-phenyl-5-(1-(4-(trifluoromethoxy)phenyl)-5-(trifluoromethyl)-1H-pyrazol-4-yl)isoxazole-4-carboxylate] | 1 to 10
CCOC(=O)c1c(-c2onc(-c3c(F)cccc3Cl)c2C(=O)OC)cnn1-c1cccc(Cl)c1 [Example 10, methyl 3-(2-chloro-6-fluorophenyl)-5-(1-(3-chlorophenyl)-5-(ethoxycarbonyl)-1H-pyrazol-4-yl)isoxazole-4-carboxylate] | 0.01 to 0.1
CCOC(=O)c1c(-c2c(F)cccc2Cl)noc1-c1cnn(-c2ccccc2[N+](=O)[O-])c1C(F)(F)F [Example B-95, 3-(2-chloro-6-fluorophenyl)-5-(1-(2-nitrophenyl)-5-(trifluoromethyl)-1H-pyrazol-4-yl)isoxazole-4-carboxylate] | 0.1 to 1
CCOC(=O)c1c(-c2c(F)cccc2Cl)noc1-c1cnn(-c2ccccn2)c1C(F)(F)F [Example B-84, ethyl 3-(2-chloro-6-fluorophenyl)-5-(1-(pyridin-2-yl)-5-(trifluoromethyl)-1H-pyrazol-4-yl)isoxazole-4-carboxylate] | < 0.01
COCCn1ncc(-c2onc(-c3c(F)cccc3Cl)c2C(=O)OC)c1C(F)(F)F [Example 102, methyl 3-(2-chloro-6-fluorophenyl)-5-(1-(2-methoxyethyl)-5-(trifluoromethyl)-H-pyrazol-4-yl)isoxazole-4-carboxylate] | 0.1 to 1
CCOC(=O)c1c(-c2c(Cl)cncc2Cl)noc1-c1cnn(-c2ccccc2F)c1C(F)(F)F [Example B-9, ethyl 3-(3,5-dichloropyridin-4-yl)-5-(1-(2-fluorophenyl)-5-(trifluoromethyl)-1H-pyrazol-4-yl)isoxazole-4-carboxylate] | 0.01 to 0.1
